From paper PMC4978154, “Phase I metabolites of mephedrone display biological activity as substrates at monoamine transporters” (British Journal of Pharmacology, 2016)
Where “and” joins values, the source holds several entries; their conditions need not be identical. Equal entries are not always repeated.

Tests used:
Format in all cases: cell-based
hDAT [1] = target: T1, hDAT (Homo sapiens, UniProt Q01959); test: Transporter release (superfusion) assay in HEK293 cells expressing hDAT
T1 construct: expressed in transfected cells
T1 sequence (Q01959 whole entry, the tested form may be a part): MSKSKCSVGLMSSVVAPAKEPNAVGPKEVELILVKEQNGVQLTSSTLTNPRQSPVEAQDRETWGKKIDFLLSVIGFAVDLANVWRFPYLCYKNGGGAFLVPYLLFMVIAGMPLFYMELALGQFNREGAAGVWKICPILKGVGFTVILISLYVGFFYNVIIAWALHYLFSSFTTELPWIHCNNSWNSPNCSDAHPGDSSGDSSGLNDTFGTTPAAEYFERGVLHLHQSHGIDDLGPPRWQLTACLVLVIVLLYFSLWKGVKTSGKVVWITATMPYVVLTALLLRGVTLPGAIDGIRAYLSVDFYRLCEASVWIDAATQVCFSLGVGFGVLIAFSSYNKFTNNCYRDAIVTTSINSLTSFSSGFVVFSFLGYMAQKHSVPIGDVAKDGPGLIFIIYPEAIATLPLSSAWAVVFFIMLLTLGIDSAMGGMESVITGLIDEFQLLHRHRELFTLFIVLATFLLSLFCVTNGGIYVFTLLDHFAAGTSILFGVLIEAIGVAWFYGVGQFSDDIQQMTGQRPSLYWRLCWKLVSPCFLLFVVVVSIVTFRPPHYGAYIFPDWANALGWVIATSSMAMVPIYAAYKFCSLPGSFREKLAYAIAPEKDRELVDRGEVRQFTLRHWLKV
Method: (§1) The generation of HEK293 cells stably expressing the human isoforms of DAT (hDAT) and NET (hNET) was carried out as described previously (Scholze et al., 2002). For SERT, the human isoform (hSERT) was cloned in frame with yellow fluorescent protein (Schmid et al., 2001). The generation of a stable cell line was performed as described by Hilber and colleagues (Hilber et al., 2005). HEK293 cells were maintained in humidified atmosphere (5% CO2, 37°C) in DMEM, supplemented with 10% heat‐inactivated FBS and penicillin (100 u 100 mL^−1) and streptomycin (100 μg 100 mL^−1). Selection pressure was maintained by adding geneticin (50 μg·mL^−1) to the cell culture media.
(§2) Superfusion experiments were performed as described previously (Scholze et al., 2002). Briefly, HEK293 cells expressing the desired transporter were seeded at a density of 40 000 cells per well onto poly‐D‐lysine‐coated 5 mm glass cover slips in 96‐well plates 24 h prior to the experiment. Cells were preloaded with [^3H]‐MPP^+ (0.1 μM, hDAT and hNET) or [^3H]‐5‐HT (0.4 μM, hSERT) for 20 min at 37°C in a final volume of 100 μL per well. Subsequently, glass coverslips were transferred into small superfusion chambers (volume of 200 μL) and superfused with KHB at 25°C with a superfusion rate of 0.7 mL·min^−1 for 40 min to establish a stable basal efflux. After washout, the collection of 2‐min fractions was initiated. After the first three basal fractions, monensin (10 μM) or solvent was added for four fractions. Consequently, the cells were challenged with test drugs (10 μM) for five fractions in the presence or absence of monensin. Finally, the cells were lysed in 1% SDS to determine the total radioactivity. Radioactivity per fraction was assessed by a liquid scintillation counter and expressed as fractional release, that is, the percentage of released ^3H in relation to total ^3H present at the beginning of the fraction (Sitte et al., 2000). For analysis, release was expressed as AUC.
(§3) Calculations were performed using Microsoft Excel® 2010 (Microsoft Corporation, Redmond, WA, USA) and GRAPHPAD PRISM 5.0. (GraphPad Software Inc., La Jolla, CA, USA). IC50 values for uptake inhibition and EC50 values for release were determined by nonlinear regression fits. Release data expressed as AUC were analysed by one‐way ANOVA followed by Bonferroni's multiple comparison test. Microdialysis and locomotor data were analysed by two‐way ANOVA (drug treatment × time) followed by Bonferroni's test. The effect of monensin treatment on basal efflux of tritiated substrate was analysed with the Mann–Whitney test. P values less than 0.05 (i.e. P < 0.05) were considered significant. The data and statistical analysis comply with the recommendations on experimental design and analysis in pharmacology (Curtis et al., 2015).
Data from uptake inhibition assays cannot distinguish whether test drugs act as non‐transported inhibitors or transportable substrates, which evoke release (Scholze et al., 2000; Sitte et al., 2000; Baumann et al., 2013). Therefore, mephedrone and its metabolites were tested in release assays to further explore their interaction with transporters. The release assays were performed with the same transporter‐expressing HEK293 cell lines described above and used a superfusion system (Sitte et al., 2000). As described previously, efflux of preloaded [^3H]‐MPP^+ or [^3H]‐5‐HT was monitored in the presence or absence of monensin (10 μM) (Scholze et al., 2000). […]

hDAT [2] = target: T1, hDAT; test: Transporter uptake inhibition in HEK293 cells expressing hDAT; conditions: [3H]-MPP+ uptake
Method: as §1
(§4) Uptake experiments were conducted as described previously (Sitte et al., 2001) with minor modifications. In brief, HEK293 cells expressing hDAT, hNET or hSERT were seeded into poly‐D‐lysine (PDL) coated 96‐well plates at a density of 40 000 cells per well. The next day, DMEM was aspirated and replaced with Krebs HEPES buffer (KHB, 25 mM HEPES, 120 mM NaCl, 5 mM KCl, 1.2 mM CaCl2, and 1.2 mM MgSO4, 5 mM D‐glucose, pH adjusted to 7.3 with NaOH) (200 μL per well), and cells were pre‐incubated with various concentrations of mephedrone or its metabolites for 5 min (50 μL per well). Subsequently, 0.1 μM of [^3H]‐5‐HT or 0.02 μM of [^3H]‐MPP^+ were added, and uptake was terminated after 1 (hSERT) or 3 min (hDAT, hNET) by washing the cells with 200 μL of ice‐cold KHB. Cells were lysed with 1% SDS, and tritium uptake was determined by scintillation counting. Nonspecific uptake was determined in the presence of 10 μM paroxetine (hSERT) or 10 μM mazindol (hDAT and hNET).
as §3

hNET [3] = target: T2, hNET (Homo sapiens, UniProt P23975); test: Transporter uptake inhibition in HEK293 cells expressing hNET; conditions: [3H]-MPP+ uptake
T2 construct: expressed in transfected cells
T2 sequence (P23975 whole entry): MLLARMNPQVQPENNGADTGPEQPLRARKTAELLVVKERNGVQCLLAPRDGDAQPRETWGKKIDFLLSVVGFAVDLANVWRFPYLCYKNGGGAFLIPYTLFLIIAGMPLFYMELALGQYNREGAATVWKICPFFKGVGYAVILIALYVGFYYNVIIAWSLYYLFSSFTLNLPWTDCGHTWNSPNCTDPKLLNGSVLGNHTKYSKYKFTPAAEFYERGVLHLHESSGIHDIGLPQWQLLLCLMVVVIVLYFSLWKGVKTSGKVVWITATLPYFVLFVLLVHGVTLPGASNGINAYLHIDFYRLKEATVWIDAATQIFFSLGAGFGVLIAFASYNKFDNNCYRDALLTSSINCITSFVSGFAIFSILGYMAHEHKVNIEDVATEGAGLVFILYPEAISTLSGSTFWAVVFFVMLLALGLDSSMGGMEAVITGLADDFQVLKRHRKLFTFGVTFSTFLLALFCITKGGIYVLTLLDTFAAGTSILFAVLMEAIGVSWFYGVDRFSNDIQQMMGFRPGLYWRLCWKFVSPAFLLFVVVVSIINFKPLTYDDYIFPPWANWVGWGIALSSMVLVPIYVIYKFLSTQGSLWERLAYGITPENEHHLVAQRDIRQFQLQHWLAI
Method: as §1, §4
as §3, with “GRAPHPAD” left out

hNET [4] = target: T2, hNET; test: Transporter release (superfusion) assay in HEK293 cells expressing hNET; conditions: test drug 10 μM, monensin 10 μM; post hoc Bonferroni
Method: as §1
as §2, with “Consequently, the cells were challenged with test drugs (10 μM) for five fractions in the presence or absence of monensin.” left out
as §3, with “(GraphPad Software Inc., La Jolla, CA, USA).” left out, “P values less than 0.05 (i.e. P < 0.05) were considered significant. The data and statistical analysis comply with the recommendations on experimental design and analysis in pharmacology (Curtis et al., 2015).” left out
Data from uptake inhibition assays cannot distinguish whether test drugs act as non‐transported inhibitors or transportable substrates, which evoke release (Scholze et al., 2000; Sitte et al., 2000; Baumann et al., 2013). […] As described previously, efflux of preloaded [^3H]‐MPP^+ or [^3H]‐5‐HT was monitored in the presence or absence of monensin (10 μM) (Scholze et al., 2000). […]

hSERT = target: T3, hSERT (Homo sapiens, UniProt P31645); test: Transporter uptake inhibition in HEK293 cells expressing hSERT; conditions: [3H]-5-HT uptake
T3 construct: yellow fluorescent protein (YFP); expressed in transfected cells
T3 sequence (P31645 whole entry): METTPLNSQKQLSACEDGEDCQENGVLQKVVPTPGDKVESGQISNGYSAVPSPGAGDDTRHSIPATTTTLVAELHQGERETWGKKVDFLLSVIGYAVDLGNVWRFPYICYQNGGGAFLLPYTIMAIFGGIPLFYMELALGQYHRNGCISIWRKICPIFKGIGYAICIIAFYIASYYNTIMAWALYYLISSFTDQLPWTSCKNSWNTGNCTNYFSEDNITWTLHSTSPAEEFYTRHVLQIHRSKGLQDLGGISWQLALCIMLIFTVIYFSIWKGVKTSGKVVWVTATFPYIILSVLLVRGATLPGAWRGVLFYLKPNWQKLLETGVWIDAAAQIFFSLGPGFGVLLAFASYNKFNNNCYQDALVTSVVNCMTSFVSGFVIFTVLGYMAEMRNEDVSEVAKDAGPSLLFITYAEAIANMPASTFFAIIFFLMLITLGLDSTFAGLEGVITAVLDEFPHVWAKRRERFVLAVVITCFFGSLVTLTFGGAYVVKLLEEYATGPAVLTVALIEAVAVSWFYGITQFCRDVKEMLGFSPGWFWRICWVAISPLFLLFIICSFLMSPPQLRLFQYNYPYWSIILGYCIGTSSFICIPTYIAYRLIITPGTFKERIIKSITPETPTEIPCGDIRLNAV
Method: as §1, §4, §3

Row | SMILES | effect of monensin alone on substrate release (basal efflux) (hDAT [1]; monensin 10 μM alone, P < 0.05, Mann–Whitney test) | IC50 (hDAT [2]; IC50 on uptake mediated by hDAT, mean (95% confidence interval)) [µM] | efficacy of uptake inhibition at hDAT (hDAT [2]) | IC50 (hNET [3]; IC50 on uptake mediated by hNET, mean (95% confidence interval)) | efficacy of uptake inhibition at hNET (hNET [3]) | enhancement by monensin of drug-evoked [3H]-MPP+ release at hNET (AUC) (hNET [4]) | IC50 (hSERT; IC50 on uptake mediated by hSERT, mean (95% confidence interval)) [µM] | efficacy of uptake inhibition at hSERT (hSERT) | enhancement by monensin of drug-evoked [3H]-MPP+ release at hDAT (AUC) (hDAT [1]; test drug 10 μM, monensin 10 μM, post hoc Bonferroni)
1 | CC[C@@]1([C@@H]2O[C@@H]([C@H]3O[C@@](O)(CO)[C@H](C)C[C@@H]3C)C[C@@H]2C)CC[C@H]([C@]2(C)CC[C@]3(C[C@H](O)[C@@H](C)[C@@H]([C@@H](C)[C@@H](OC)[C@H](C)C(=O)O)O3)O2)O1 [monensin, reference compound] | significant albeit modest increase |  |  |  |  |  |  |  | 
2 | CNC(C)C(O)c1ccc(C)cc1.Cl (stereo not drawn) [Dihydromephedrone, 2‐(methylamino)‐1‐(p‐tolyl)propan‐1‐ol hydrochloride] |  | 24 | fully efficacious inhibitors of uptake | 24 µM and 23.5 µM | fully efficacious inhibitors of uptake | not | 65 | fully efficacious inhibitors of uptake | not
